# Experimental data: patent US10562902B2, “IRAK4 inhibitor and use thereof” (BEIJING HANMI PHARMACEUTICAL CO., LTD., priority 2015, dated 2020)
# Target: IRAK4 kinase (Homo sapiens (Human), UniProt Q9NWZ3)
# Experiment: IRAK4 kinase activity inhibition assay
# Assay type: biochemical
# Conditions: ADP-Glo kinase assay, 10 μM ATP, MBP substrate
# Procedure: IRAK4 kinase (purchased from Life Technologies, Cat. No.: PR5612U) was diluted to 2 folds of the final concentration (the final concentration is […]) with reaction buffer (40 mM Tris-HC1, pH 7.5; 20 mM MgCl2; 0.1 mg/mL BSA; 1 mM DTT), and added to a 384-well plate at 5 μL/well. The test drugs were 10-fold serial diluted from 10 μM to set six concentration points and added to the test wells of the 384-well plate at 2.5 μL/well. After incubation for 10 min at 25° C., 10 μM of ATP and 0.1 μg/μL of an enzyme reaction substrate, myelin basic protein MBP (purchased from Signal Chem, Cat. No.: M42-51N) were added at 2.5 μL/well, and reacted at 25° C. for 60 minutes. After the reaction was completed, the kinase activity assay was performed using the ADP-Glo™ kinase assay kit (purchased from Promega, Cat. No.: V9102) according to the manufacture's instruction, i.e., 10 μL of ADP-Glo reaction reagent was first added and reacted at 25° C. for 40 minutes, 10 μL of the reaction mixture was taken and mixed with 10 μL of ADP-Glo detection reagent, and reacted at 25° C. for 30 minutes. The kinase activity was then detected, and the IC50 values of the test drugs were calculated.
# IRAK4 kinase, sequence (Q9NWZ3 whole entry): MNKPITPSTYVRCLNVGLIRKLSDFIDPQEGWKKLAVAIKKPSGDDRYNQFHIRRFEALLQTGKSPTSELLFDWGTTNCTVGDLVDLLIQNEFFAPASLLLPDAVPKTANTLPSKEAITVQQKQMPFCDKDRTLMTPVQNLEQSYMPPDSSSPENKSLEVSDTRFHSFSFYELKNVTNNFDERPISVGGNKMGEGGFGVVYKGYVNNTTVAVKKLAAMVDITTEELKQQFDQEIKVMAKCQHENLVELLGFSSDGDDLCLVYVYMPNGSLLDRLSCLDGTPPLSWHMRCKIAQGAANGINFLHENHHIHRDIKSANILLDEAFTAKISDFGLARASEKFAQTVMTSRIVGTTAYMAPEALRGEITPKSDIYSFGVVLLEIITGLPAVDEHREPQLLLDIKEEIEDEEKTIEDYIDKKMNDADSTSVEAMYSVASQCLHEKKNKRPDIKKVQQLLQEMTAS
row,SMILES,IC50 [nM]
1,Cc1cc(Nc2nc(O[C@H]3CCOC3)c3c(ccn3-c3cnn(C)c3)n2)cs1 [Example 82],100 to 1000
2,Cc1cc(Nc2nc(N[C@H]3CC[C@H](O)CC3)c3c(ccn3-c3ccc(F)cc3)n2)sn1 [Example 34],100 to 1000
3,Cc1cc(Nc2nc(OCC3CCOC3)c3c(ccn3-c3cnn(C)c3)n2)sn1 (centres unmarked) [Example 58],100 to 1000
4,Cc1cc(Nc2nc(N[C@H]3CCOC3)c3c(ccn3-c3cnn(C)c3)n2)sn1 [Example 21],100 to 1000
5,CO[C@H]1CC[C@@H](Nc2nc(Nc3cc(C)ns3)nc3ccn(-c4cnn(C)c4)c23)CC1 [Example 25],100 to 1000
6,"CC(C)Nc1nc(Nc2cnn(C3CCCCC3)c2)nc2ccn(-c3cnn(C)c3)c12 [Example 45, N^2-(1-cyclohexyl-1H-pyrazol-4-yl)-N^4-isopropyl-5-(1-methyl-1H-pyrazol-4-yl)-5H-pyrrolo[3,2-d]pyrimidin-2,4-diamine]",100 to 1000
7,Cc1cc(Nc2nc(OC3CCCCC3)c3c(ccn3-c3cnn(C)c3)n2)sn1 [Example 66],≤ 100
8,CN(C)C(=O)c1cc(Nc2nc(NC3CCOCC3)c3c(ccn3-c3cnn(C)c3)n2)cs1 [Example 52],100 to 1000
9,Cn1cc(Nc2nc(N[C@H]3CC[C@H](O)CC3)c3c(ccn3-c3cnn(C)c3)n2)cn1 [Example 46],100 to 1000
10,Cn1cc(-n2ccc3nc(Nc4cc(C#N)cs4)nc(O[C@H]4CCOC4)c32)cn1 [Example 80],100 to 1000
11,Cn1cc(-n2ccc3nc(Nc4ccc(C#N)s4)nc(O[C@H]4CCOC4)c32)cn1 [Example 79],100 to 1000
12,Cc1cc(Nc2nc(NC(C)C)c3c(ccn3-c3cnn(C)c3)n2)sn1 [Example 2],≤ 100
13,CNC(=O)CCCNc1nc(Nc2cc(C)ns2)nc2ccn(-c3cnn(C)c3)c12 [Example 7],100 to 1000
14,"Cn1cc(Nc2nc(O[C@H]3CCOC3)c3c(ccn3-c3cnn(C)c3)n2)cn1 [Example 105, (S)-(1-methyl-1H-pyrazol-4-yl)-[5-(1-methyl-1H-pyrazol-4-yl)-4-(tetrahydrofuran-3-yloxy)-5H-pyrrolo[3,2-d]pyrimidin-2-yl]amine]",≤ 100
15,Cc1cc(Nc2nc(OC3CCC(O)CC3)c3c(ccn3-c3cnn(C)c3)n2)sn1 (centres unmarked) [Example 67],100 to 1000
16,Cc1cc(Nc2nc(NC3CCOCC3)c3c(ccn3-c3cnn(C)c3)n2)sn1 [Example 29],≤ 100
17,Cc1cc(Nc2nc(NC3CC(O)C3)c3c(ccn3-c3cnn(C)c3)n2)sn1 (centres unmarked) [Example 13],≤ 100
18,Cn1cc(-n2ccc3nc(Nc4cccs4)nc(O[C@H]4CCOC4)c32)cn1 [Example 78],≤ 100
19,Cc1cc(Nc2nc(NCCO)c3c(ccn3-c3cnn(C)c3)n2)sn1 [Example 3],100 to 1000
20,CC(=O)N1CCCC(Oc2nc(Nc3cc(C)ns3)nc3ccn(-c4cnn(C)c4)c23)C1 (centres unmarked) [Example 70],100 to 1000
21,Cc1cc(Nc2nc(N[C@H]3C[C@H](N4CCCCC4)C3)c3c(ccn3-c3cnn(C)c3)n2)sn1 [Example 16],100 to 1000

row,SMILES,IC50 [nM]
1,Cc1cc(Nc2nc(OC3CCOCC3)c3c(ccn3-c3cccc(N(C)C)c3)n2)sn1 [Example 96],1000 to 10000
2,Cc1cc(Nc2nc(OC3CCOCC3)c3c(ccn3-c3ccnnc3)n2)sn1 [Example 102],100 to 1000
3,Cc1cc(Nc2nc(OC3CCOCC3)c3c(ccn3-c3ccncc3)n2)sn1 [Example 97],100 to 1000
4,Cc1cc(Nc2nc(NC(C)C)c3c(ccn3-c3cccc(S(C)(=O)=O)c3)n2)sn1 [Example 36],1000 to 10000
5,CC(C)Nc1nc(Nc2cnn(C3CCOCC3)c2)nc2ccn(-c3cnn(C)c3)c12 [Example 47],100 to 1000
6,Cn1cc(-n2ccc3nc(Nc4ccsc4)nc(O[C@H]4CCOC4)c32)cn1 [Example 81],100 to 1000
7,Cc1cc(Nc2nc(NC3CCCC3)c3c(ccn3-c3cnn(C)c3)n2)sn1 [Example 17],100 to 1000
8,Cc1cc(Nc2nc(OC3CCOCC3)c3c(ccn3-c3ccccc3)n2)sn1 [Example 92],100 to 1000
9,Cc1cc(Nc2nc(O[C@H]3CCOC3)c3c(ccn3-c3cnn(C)c3)n2)[nH]n1 [Example 84],100 to 1000
10,CCn1cc(-n2ccc3nc(Nc4cc(C)ns4)nc(OC4CCOCC4)c32)cn1 [Example 90],100 to 1000
11,Cc1cc(Nc2nc(OC3CCOCC3)c3c(ccn3-c3ccoc3)n2)sn1 [Example 88],100 to 1000
12,Cc1cc(Nc2nc(O[C@H]3CCOC3)c3c(ccn3-c3ccoc3)n2)sn1 [Example 87],≤ 100
13,COc1ccc(-n2ccc3nc(Nc4cc(C)ns4)nc(OC4CCOCC4)c32)cc1 [Example 95],1000 to 10000
14,Cc1cc(Nc2nc(NC(C)C)c3c(ccn3-c3cccnc3)n2)sn1 [Example 37],100 to 1000
15,Cc1cc(Nc2nc(NC(C)C)c3c(ccn3-c3ccc4c(c3)OCO4)n2)sn1 [Example 43],100 to 1000
16,COCC(C)Oc1nc(Nc2cc(C)ns2)nc2ccn(-c3cnn(C)c3)c12 (centres unmarked) [Example 56],100 to 1000
17,Cc1cc(Nc2nc(NC3CCN(C)CC3)c3c(ccn3-c3cnn(C)c3)n2)sn1 [Example 30],100 to 1000
18,Cc1cc(Nc2nc(OC3CCOCC3)c3c(ccn3-c3ccsc3)n2)sn1 [Example 89],100 to 1000
19,Cc1cc(Nc2nc(N[C@H]3CC[C@H](N4CCCCC4)CC3)c3c(ccn3-c3cnn(C)c3)n2)sn1 [Example 28],100 to 1000
20,Cn1cc(-n2ccc3nc(Nc4cn[nH]c4)nc(O[C@H]4CCOC4)c32)cn1 [Example 106],≤ 100

# The remaining lines, values ahead:
row,IC50 [nM],SMILES
1,100 to 1000,CCNC(=O)c1csc(Nc2nc(OC3CCCCC3)c3c(ccn3-c3cnn(C)c3)n2)c1 [Example 129]
2,≤ 100,CCNC(=O)c1cc(Nc2nc(O[C@@H]3CCOC3)c3c(ccn3-c3cnn(C)c3)n2)cs1 [Example 158]
3,≤ 100,Cn1cc(-n2ccc3nc(Nc4ccc5[nH]ncc5c4)nc(O[C@H]4CCOC4)c32)cn1 [Example 123]
4,≤ 100,Cn1cc(-n2ccc3nc(Nc4cnn(-c5ccncc5)c4)nc(O[C@H]4CCOC4)c32)cn1 [Example 113]
5,≤ 100,Cn1cc(-n2ccc3nc(Nc4cnn(CCO)c4)nc(O[C@H]4CCOC4)c32)cn1 [Example 108]
6,≤ 100,Cn1cc(-n2ccc3nc(Nc4cnn(CCF)c4)nc(O[C@H]4CCOC4)c32)cn1 [Example 107]
7,≤ 100,CN1CCC(CNC(=O)c2csc(Nc3nc(O[C@H]4CCOC4)c4c(ccn4-c4cnn(C)c4)n3)c2)CC1 [Example 141]
8,100 to 1000,Cn1cc(-n2ccc3nc(Nc4cnoc4)nc(O[C@H]4CCOC4)c32)cn1 [Example 115]
9,≤ 100,CNC(=O)c1cc(Nc2nc(O[C@H]3CCOC3)c3c(ccn3-c3cnn(C)c3)n2)sn1 [Example 166]
10,≤ 100,CC(C)NC(=O)c1csc(Nc2nc(O[C@H]3CCOC3)c3c(ccn3-c3cnn(C)c3)n2)c1 [Example 136]
11,≤ 100,Cn1cc(-n2ccc3nc(Nc4cc(C(=O)NC5CC5)cs4)nc(O[C@H]4CCOC4)c32)cn1 [Example 143]
12,≤ 100,Cn1cc(-n2ccc3nc(Nc4cc(C(=O)NCC(F)F)cs4)nc(OC4CCOCC4)c32)cn1 [Example 170]
13,≤ 100,Cn1cc(-n2ccc3nc(Nc4cc(C(=O)N5CCOCC5)cs4)nc(O[C@H]4CCOC4)c32)cn1 [Example 152]
14,≤ 100,Cn1cc(-n2ccc3nc(Nc4cc(C(=O)N[C@H]5CCOC5)cs4)nc(O[C@H]4CCOC4)c32)cn1 [Example 147]
15,100 to 1000,Cn1cc(-n2ccc3nc(Nc4ccccc4)nc(O[C@H]4CCOC4)c32)cn1 [Example 116]
16,≤ 100,CN1CCN(C(=O)c2csc(Nc3nc(O[C@H]4CCOC4)c4c(ccn4-c4cnn(C)c4)n3)c2)CC1 [Example 151]
17,100 to 1000,Cn1cc(-n2ccc3nc(Nc4ccc(N5CCOCC5)cc4)nc(O[C@H]4CCOC4)c32)cn1 [Example 118]
18,100 to 1000,Cn1cc(-n2ccc3nc(Nc4cc5n(c4)CCNC5=O)nc(OC4CCOCC4)c32)cn1 [Example 175]
19,1000 to 10000,CNC(=O)c1csc(Nc2nc(O[C@H]3CCOC3)c3c(ccn3-c3cnn(C)c3)n2)n1 [Example 165]
20,≤ 100,CCNC(=O)c1csc(Nc2nc(OCCOC)c3c(ccn3-c3cnn(C)c3)n2)c1 [Example 130]
21,≤ 100,CNC(=O)c1cc(Nc2nc(OCCOC)c3c(ccn3-c3cnn(C)c3)n2)cs1 [Example 155]
22,≤ 100,CN(C)C(=O)c1cc(Nc2nc(O[C@H]3CCOC3)c3c(ccn3-c3cnn(C)c3)n2)cs1 [Example 163]
23,≤ 100,CNC(=O)c1csc(Nc2nc(O[C@H]3CCOC3)c3c(ccn3-c3ccoc3)n2)c1 [Example 126]
24,100 to 1000,Cn1cc(-n2ccc3nc(Nc4cnn(-c5ccccc5)c4)nc(O[C@H]4CCOC4)c32)cn1 [Example 112]
25,1000 to 10000,Cn1cc(-n2ccc3nc(Nc4cccnc4)nc(O[C@H]4CCOC4)c32)cn1 [Example 117]
26,100 to 1000,Cn1cc(-n2ccc3nc(Nc4ccc5cn[nH]c5c4)nc(O[C@H]4CCOC4)c32)cn1 [Example 124]
27,≤ 100,CN1CCC(NC(=O)c2csc(Nc3nc(O[C@H]4CCOC4)c4c(ccn4-c4cnn(C)c4)n3)c2)CC1 [Example 145]
28,≤ 100,Cn1cc(-n2ccc3nc(Nc4ccc5c(c4)CNC5=O)nc(O[C@H]4CCOC4)c32)cn1 [Example 120]
29,≤ 100,COCCNC(=O)c1csc(Nc2nc(O[C@H]3CCOC3)c3c(ccn3-c3cnn(C)c3)n2)c1 [Example 139]
30,≤ 100,CN1CCC(n2cc(Nc3nc(O[C@H]4CCOC4)c4c(ccn4-c4cnn(C)c4)n3)cn2)CC1 [Example 111]
